Key:
Experiment in all cases: PhosphoSens CSox based kinase assay
Assay type in all cases: biochemical
ASK1 = target: T1, ASK1 (Homo sapiens, UniProt Q99683); conditions: 5 μM HU-MCA-13
T1 construct: ASK1, amino acids 1-1374, Invitrogen; purchased Invitrogen PV3809
Description: (§1) The initial focus was to measure the modulatory activity in vitro of MCA-13 on protein kinases which were reported to be involved in induction of neurite outgrowth.[18],[43] To do this, we took advantage of a powerful method to measure the activity of recombinant protein kinases using a homogeneous and continuous (kinetic) format, where the level of chelation-enhanced fluorescence (CHEF) is directly proportional to the amount of phosphorylated, real-time sensors consisting of sulfonamido-oxine (Sox) chromophore linked to a peptide or protein substrates of selective kinases.[44] This assay is ideal for elucidating drug mechanism of action and is increasingly being applied earlier in the drug development workflow to address off target effects and/or the challenges and opportunities for next generation protein kinase inhibitors.[45] Since neurotrophins induce neurite outgrowth by activating the different tropomyosin kinase receptors (Trk), and small molecules agonists of Trk receptors can selectively activate Trks,[46] we first investigated the ability of HU-MCA-13 to modulate TRKA, TRKB and TRKC phosphorylation activities (Supporting Information, Figure S3-2). […] The TRKs constructs used in the assay contained only the intracellular kinase domain (amino acids 442–786) and therefore presently we cannot exclude that HU-MCA-13 may interact with the TRKs extracellular domain thereby inducing the conformational change required for the kinase domain activation. […] Moreover, no effects of HU-MCA-13were found on other kinases (ASK1, ERK2, JNK3, p38α, CDK5, KDR-VEGFR, AKT1, GSK3β, PDGFRβ, PKACα, PKC, CK1, IKKβ) which stimulate neurite outgrowth. Also, no effects were observed of HU-MCA-13 on kinases (EGFR, IGF1R, FGFR 1 and 2, CAMK2α,) which inhibit neurite outgrowth or calcineurin phosphatase which dephosphorylates the neurite outgrowth stimulatory protein, cofilin.[47]
(§2) MCA-13 safety b y in vitro eval uati on usi ng Phos pho Sens®C Soxb ased kinase […]
(§3) Method: Kinase Activity Measurements
(§4) Kinase activity was measured continuously using the PhosphoSens®technology (AssayQuant Technologies Inc., Marlborough, MA) according to the manufacturers’ recommendations (http://www.assayquant.com/) . This one-step homogeneous assay use s chelation-enh anced fluorescence via optimized substrate sensors unique for each kinase, containing the unnatural fluorogenic amino-acid Sox.
(§5) The following kinases which, upon stimulation or inhibition with small molecule modulators, induced neurite outgrowth, were obtained from different companies and were used in this study at the following concentrations: 2.
(§6) 25 µL final reaction volume including : 2.5 µl Sox-based substrate (10 x), 17.5 µl reaction mix with AT P, 5.0 µL Kinase [5x in EDB (Enzyme Dilution Buffer : 20 mM TRIS, pH 8.0, 0.01% Brij -35, 0.1 mM EGTA, 5% Glycerol, 1 mM DTT, 1 mg/mL Bovine Serum Albumin]. 5-45 min preincubation (all except EDB/kinase) at 30 °C of substrate in reaction mix and ATP ensuring that the progress kinetic curve for the background fluorescence w as flat. Reaction was run at 30 °C for […]
(§7) Final Reaction Conditions.
(§8) Protein kinase activity was determined in 54 mM HEPES, pH 7.5 1 mM ATP 1.2 mM DTT (none in ASK1) 0.012% Brij-35 1% glycerol 0.2 mg/ml BSA 0.52 mM EGTA (none in assays of CAMK2α, PKCε, PKCι, Calcineurin A/B) 140 µM phosphatidylserine/3.8 µM diacylglycerol (PKCε, PKCι only) 5 ng/µl calmodulin/0.4 mM CaCl2 (CAMK2α, Calcineurin A/B only) 10 mM […]
(§9) IKKβ, AKT1, GSK3β, PKCε, PKCι, PKACα, KDR, CK1δ, EGFR, ASK1, IGF1R, CAMK2α, DLK, FGFR2, FGFR1) in the presence or absence of 5 µ M H U-MCA-13 test compound. All components e xcept enzyme were equilibrated to 30 °C prior to setting up reactions run in Corning, 384-well, white flat round bottom polystyrene NBS microplates (Cat. #3824) after sealing using optically-clear adhesive film [TopSealA -Plus plate seal, PerkinElmer (Cat. #6050185)], applied with a roller to eliminate evaporation and resulting drift. Europium was added to a final […]

IGF1R = target: T2, IGF1R (Homo sapiens, UniProt P08069); conditions: 5 μM HU-MCA-13
T2 construct: amino acids 959-1367, Carna (cat. & lot #: 08); purchased Carna 08-141
T2 sequence (P08069 959-1367): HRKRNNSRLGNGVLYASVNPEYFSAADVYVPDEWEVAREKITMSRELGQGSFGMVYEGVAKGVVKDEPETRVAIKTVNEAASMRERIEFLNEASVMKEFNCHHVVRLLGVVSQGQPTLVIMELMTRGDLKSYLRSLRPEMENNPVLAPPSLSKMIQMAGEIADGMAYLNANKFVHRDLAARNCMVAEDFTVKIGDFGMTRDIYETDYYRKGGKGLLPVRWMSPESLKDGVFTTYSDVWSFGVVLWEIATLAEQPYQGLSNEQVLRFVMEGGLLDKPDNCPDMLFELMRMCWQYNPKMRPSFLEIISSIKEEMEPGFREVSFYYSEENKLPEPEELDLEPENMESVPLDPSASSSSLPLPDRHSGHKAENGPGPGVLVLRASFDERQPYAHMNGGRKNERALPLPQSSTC
Description: as §1, §2, §3, §4, §5, §6, §7, §8, §9

p38α = target: T3, p38α (Homo sapiens, UniProt Q16539); conditions: 5 μM HU-MCA-13
T3 construct: p38α, amino acids 9-352, Carna (cat. & lot #: 04-152,; purchased Carna 04-152
T3 sequence (Q16539 9-352): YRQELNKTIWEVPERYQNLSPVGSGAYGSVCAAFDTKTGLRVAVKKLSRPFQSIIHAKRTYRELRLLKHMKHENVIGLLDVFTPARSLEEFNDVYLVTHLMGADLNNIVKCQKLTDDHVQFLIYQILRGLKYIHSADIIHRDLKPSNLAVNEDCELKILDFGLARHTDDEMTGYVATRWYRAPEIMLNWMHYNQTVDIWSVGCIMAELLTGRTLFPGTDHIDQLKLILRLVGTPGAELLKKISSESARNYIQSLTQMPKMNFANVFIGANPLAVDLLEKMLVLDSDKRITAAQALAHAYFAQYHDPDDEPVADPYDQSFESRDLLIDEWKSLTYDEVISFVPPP
Description: as §1, §2, §3, §4, §5, §6, §7, §8, §9

ERK2 = target: T4, ERK2 (Homo sapiens, UniProt P28482); conditions: 5 μM HU-MCA-13
T4 construct: ERK2, amino acids 1-360, Carna; purchased Carna 04-143
T4 sequence (P28482 whole entry, the tested form may be a part): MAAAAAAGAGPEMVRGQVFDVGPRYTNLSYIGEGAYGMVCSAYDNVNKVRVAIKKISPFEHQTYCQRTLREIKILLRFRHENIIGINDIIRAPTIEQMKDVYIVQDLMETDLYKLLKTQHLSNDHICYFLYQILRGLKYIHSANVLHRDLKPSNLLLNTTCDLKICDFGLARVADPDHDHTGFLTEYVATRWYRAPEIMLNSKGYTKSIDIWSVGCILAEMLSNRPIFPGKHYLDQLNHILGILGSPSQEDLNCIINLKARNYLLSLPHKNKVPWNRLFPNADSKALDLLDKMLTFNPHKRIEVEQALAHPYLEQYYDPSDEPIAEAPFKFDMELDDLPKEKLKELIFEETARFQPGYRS
Description: as §1, §2, §3, §4, §5, §6, §7, §8, §9

JNK3 = target: T5, JNK3 (Homo sapiens, UniProt P53779); conditions: 5 μM HU-MCA-13
T5 construct: JNK 3, amino acids 1 -426, Carna; purchased Carna 04-150
T5 sequence (P53779 39-464): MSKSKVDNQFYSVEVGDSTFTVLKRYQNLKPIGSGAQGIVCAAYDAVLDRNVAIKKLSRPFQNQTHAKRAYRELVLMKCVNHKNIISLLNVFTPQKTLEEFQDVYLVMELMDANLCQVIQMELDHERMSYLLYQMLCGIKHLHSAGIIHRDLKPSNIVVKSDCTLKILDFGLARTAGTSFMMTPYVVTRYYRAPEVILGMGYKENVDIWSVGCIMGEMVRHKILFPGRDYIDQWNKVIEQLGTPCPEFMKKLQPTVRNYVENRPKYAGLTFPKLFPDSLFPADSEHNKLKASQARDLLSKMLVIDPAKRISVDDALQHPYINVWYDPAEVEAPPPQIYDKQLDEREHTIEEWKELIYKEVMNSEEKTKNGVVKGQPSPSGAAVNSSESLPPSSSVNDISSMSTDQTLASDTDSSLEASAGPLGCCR
Description: as §1, §2, §3, §4, §5, §6, §7, §8, §9

IKKβ = target: T6, IKKβ (Homo sapiens, UniProt O14920); conditions: 5 μM HU-MCA-13
T6 construct: purchased Invitrogen PV3836
T6 sequence (O14920 whole entry): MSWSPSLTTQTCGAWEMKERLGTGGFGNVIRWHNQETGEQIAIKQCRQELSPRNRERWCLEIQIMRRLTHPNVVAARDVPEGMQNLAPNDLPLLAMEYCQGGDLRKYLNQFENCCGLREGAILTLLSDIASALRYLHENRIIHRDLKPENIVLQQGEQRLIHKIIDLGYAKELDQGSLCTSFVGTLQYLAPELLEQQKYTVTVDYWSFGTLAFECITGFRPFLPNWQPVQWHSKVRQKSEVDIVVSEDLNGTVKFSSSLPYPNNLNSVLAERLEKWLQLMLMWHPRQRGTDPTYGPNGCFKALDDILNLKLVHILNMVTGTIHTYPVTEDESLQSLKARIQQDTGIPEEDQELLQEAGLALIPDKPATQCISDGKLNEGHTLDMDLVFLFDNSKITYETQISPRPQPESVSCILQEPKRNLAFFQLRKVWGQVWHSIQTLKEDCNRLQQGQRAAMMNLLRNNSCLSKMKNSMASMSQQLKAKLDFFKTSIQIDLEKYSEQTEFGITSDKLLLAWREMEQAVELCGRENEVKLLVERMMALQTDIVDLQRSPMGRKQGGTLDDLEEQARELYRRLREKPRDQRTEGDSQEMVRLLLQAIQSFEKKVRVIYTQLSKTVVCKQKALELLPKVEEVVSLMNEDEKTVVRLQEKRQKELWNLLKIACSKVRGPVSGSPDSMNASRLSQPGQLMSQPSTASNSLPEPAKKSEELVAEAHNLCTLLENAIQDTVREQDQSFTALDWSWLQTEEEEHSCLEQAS
Description: as §1, §2, §3, §4, §5, §6, §7, §8, §9

EGFR = target: T7, EGFR (Homo sapiens, UniProt P00533); conditions: 5 μM HU-MCA-13
T7 construct: amino acids 668-1210, BPS Bio (cat. & lot #: 40187,; purchased BPS Bio 40187
Description: as §1, §2, §3, §4, §5, §6, §7, §8, §9

PDGFRβ = target: T8, PDGFRβ (Homo sapiens, UniProt P09619); conditions: 5 μM HU-MCA-13
T8 construct: PDGFRβ, amino acids 557 -1106, Carna; purchased Carna 08-158
Description: as §1, §2, §3, §4, §5, §6, §7, §8, §9

CK1 = target: T9, CK1 (Homo sapiens, UniProt P48730); conditions: 5 μM HU-MCA-13
T9 construct: CK1δ, amino acids 1 -294, Carna; purchased Carna 03-103
T9 sequence (P48730 1-294): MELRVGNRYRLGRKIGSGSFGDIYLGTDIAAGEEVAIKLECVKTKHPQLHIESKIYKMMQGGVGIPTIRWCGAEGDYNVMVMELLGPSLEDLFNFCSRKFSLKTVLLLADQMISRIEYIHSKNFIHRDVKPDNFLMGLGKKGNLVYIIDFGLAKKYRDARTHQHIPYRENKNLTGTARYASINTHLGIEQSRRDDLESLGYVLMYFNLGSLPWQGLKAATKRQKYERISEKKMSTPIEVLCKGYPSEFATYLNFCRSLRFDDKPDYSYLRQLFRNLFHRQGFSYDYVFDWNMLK
Description: as §1, §2, §3, §4, §5, §6, §7, §8, §9

TRK B = target: T10, TRK B (Homo sapiens, UniProt Q16620); conditions: 5 μM HU-MCA-13; intracellular kinase domain
T10 construct: TRKB, amino acids 456 -822, BPS Bio; purchased BPS Bio 40281 (lot 130826)
T10 sequence (Q16620 456-822): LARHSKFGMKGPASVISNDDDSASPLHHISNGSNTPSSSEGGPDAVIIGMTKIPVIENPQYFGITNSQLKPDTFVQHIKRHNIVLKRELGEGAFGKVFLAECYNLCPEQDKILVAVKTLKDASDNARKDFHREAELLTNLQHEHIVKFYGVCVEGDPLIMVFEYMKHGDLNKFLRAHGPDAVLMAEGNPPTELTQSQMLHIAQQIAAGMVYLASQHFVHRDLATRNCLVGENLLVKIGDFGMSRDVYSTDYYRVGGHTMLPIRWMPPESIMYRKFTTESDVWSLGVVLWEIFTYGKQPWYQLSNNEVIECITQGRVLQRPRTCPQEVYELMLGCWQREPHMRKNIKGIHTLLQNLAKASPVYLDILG
Description: as §1, §2, §3, §4, §5, §6, §7, §8, §9

PKACα = target: T11, PKACα (Homo sapiens, UniProt P17612); conditions: 5 μM HU-MCA-13
T11 construct: PKACα, amino acids 1 -351, Carna (cat. & lot #: 01 -127/10CBS -0315N)/; purchased Carna 01-127
Description: as §1, §2, §3, §4, §5, §6, §7, §8, §9

AKT1 = target: T12, AKT1 (Homo sapiens, UniProt P31749); conditions: 5 μM HU-MCA-13
T12 construct: AKT1, amino acids 104-480, Carna (cat. & lot #: 01 -101,; purchased Carna 01-101
T12 sequence (P31749 104-480): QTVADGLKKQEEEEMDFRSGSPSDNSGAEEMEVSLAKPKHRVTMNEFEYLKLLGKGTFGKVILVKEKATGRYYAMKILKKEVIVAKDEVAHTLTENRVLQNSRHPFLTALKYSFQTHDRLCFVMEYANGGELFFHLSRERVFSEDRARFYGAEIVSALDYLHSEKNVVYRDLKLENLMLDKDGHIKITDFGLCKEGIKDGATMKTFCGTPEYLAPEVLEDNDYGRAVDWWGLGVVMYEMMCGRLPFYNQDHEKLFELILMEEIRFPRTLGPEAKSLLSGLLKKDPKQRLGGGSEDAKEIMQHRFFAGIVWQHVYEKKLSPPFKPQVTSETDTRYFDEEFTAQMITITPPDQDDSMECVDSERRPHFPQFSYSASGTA
Description: as §1, §2, §3, §4, §5, §6, §7, §8, §9

PKC = conditions: 5 μM HU-MCA-13
Description: as §1, §2, §3, §4, §5, §6, §7, §8, §9

T1 sequence (Q99683 whole entry, the tested form may be a part): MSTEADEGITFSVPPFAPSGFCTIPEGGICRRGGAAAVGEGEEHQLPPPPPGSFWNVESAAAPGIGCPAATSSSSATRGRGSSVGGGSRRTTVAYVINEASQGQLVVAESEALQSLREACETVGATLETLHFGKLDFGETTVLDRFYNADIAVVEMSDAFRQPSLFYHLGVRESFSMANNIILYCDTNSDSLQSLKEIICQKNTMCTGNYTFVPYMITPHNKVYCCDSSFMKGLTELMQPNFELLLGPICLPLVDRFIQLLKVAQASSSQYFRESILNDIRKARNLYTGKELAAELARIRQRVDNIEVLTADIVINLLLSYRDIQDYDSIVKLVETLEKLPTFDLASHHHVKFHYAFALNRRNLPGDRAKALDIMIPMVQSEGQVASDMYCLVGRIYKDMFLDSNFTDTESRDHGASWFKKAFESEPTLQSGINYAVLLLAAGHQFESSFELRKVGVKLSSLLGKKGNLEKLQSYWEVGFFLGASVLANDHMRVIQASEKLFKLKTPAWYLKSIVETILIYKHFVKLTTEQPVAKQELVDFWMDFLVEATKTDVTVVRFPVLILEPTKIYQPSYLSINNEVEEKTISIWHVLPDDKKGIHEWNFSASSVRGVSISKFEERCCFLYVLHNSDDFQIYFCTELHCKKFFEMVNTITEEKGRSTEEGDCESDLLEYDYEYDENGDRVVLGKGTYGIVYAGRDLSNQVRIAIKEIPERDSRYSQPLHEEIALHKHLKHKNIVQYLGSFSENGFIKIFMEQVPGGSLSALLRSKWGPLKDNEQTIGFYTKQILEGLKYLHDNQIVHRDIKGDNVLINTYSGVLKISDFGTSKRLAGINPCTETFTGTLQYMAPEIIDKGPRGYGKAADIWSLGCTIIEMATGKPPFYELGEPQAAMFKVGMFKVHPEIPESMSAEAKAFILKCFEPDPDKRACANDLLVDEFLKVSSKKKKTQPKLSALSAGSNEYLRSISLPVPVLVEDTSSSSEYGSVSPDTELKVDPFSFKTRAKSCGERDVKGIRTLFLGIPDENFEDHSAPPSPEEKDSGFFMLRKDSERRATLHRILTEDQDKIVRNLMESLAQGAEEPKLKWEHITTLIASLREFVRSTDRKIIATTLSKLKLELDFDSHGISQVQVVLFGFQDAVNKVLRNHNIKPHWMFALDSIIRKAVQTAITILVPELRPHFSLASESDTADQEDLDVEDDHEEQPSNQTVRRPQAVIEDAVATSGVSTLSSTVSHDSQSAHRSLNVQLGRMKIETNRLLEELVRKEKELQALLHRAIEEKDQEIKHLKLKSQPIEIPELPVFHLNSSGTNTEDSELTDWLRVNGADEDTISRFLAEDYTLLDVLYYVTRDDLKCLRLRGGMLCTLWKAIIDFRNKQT

C=CCC1CCCC(CCC(=O)O)C1=C (stereo not shown) [HU-MCA-13, 3-(3-allyl-2-methylenecyclohexyl)propanoic acid]
no effects: effect on kinase activity (ASK1) | effect on kinase activity (IGF1R) | effect on kinase activity (p38α) | effect on kinase activity (ERK2) | effect on kinase activity (JNK3) | effect on kinase activity (IKKβ) | effect on kinase activity (EGFR) | effect on kinase activity (PDGFRβ) | effect on kinase activity (CK1) | modulation of phosphorylation activity (TRK B) | effect on kinase activity (PKACα) | effect on kinase activity (AKT1) | effect on kinase activity (PKC)

Source: article PMC7497641, “Neurotropic activity and safety of methylene-cycloalkylacetate (MCA) derivative 3-(3-allyl-2-methylenecyclohexyl) propanoic acid” (ACS Chemical Neuroscience, 2020)
